Test results from paper PMC11008251, “Distribution of 2,2′,5,5′-Tetrachlorobiphenyl (PCB52) Metabolites in Adolescent Rats after Acute Nose-Only Inhalation Exposure” (Environmental Science & Technology, 2024).
Read-outs that look alike come from different tables or passages of the source.

Tests used:
[1] = LC-HRMS analysis of PCB52 metabolites in tissues after 4 h nose-only inhalation; type: in vivo, Sprague–Dawley rats
Procedure: The Institutional Animal Care and Use Committee of the University of Iowa approved all of the animal protocols. Animals were housed in a temperature- and humidity-controlled room (21 °C, 55% relative humidity) with a 12 h light/dark cycle in an Association for the Assessment and Accreditation of Laboratory Animal Care (AAALAC) accredited animal facility. Animals were provided with food (sterile Teklad 5% stock diet, Harlan, Madison, WI) and water ad libitum throughout the study. Thirty-six male and female Sprague–Dawley rats (7 weeks of age; Charles River, Wilmington, MA) were allowed to acclimate to the animal facility for 8 days after arrival. Prior to exposure, rats (227 ± 27 and 197 ± 13 g, male and female, respectively) were randomly assigned to the exposure groups (n = 6 per group) using a random number generated (Excel, version 2307). Animals were simultaneously exposed for 4 h to a low or high concentration of PCB52-laden per sex) or filtered lab air (Figure 1A). Exposure duration was limited to 4 h along with scheduled training days (30 min at 55 days of age and 2 h at 56 days of age) to acclimate animals and minimize stress. […]
Tissues (brain, cecum and intestinal content, liver, lung, and serum) were homogenized and extracted for LC-HRMS analysis following a published approach; see the Supporting Information.[19] Extracts were analyzed at the High-Resolution Mass Spectrometry Facility at the University of Iowa on a Q-Exactive Orbitrap mass spectrometer (Thermo Fisher Scientific, Waltham, MA, U.S.A.) with an Axquity UPLC-C18 column (particle size: […], 2.1 × 100 mm, Waters, Milford, MA, U.S.A.); see the Supporting Information. […]
All analyses were conducted by using validated standard operating procedures. […] X1-OH-PCB52 estimated concentrations were calculated based on the relative response factor of 4-OH-PCB52. The precision and recoveries of the analyses were further assessed by measuring the recovery of PCB52 and 4-OH-PCB52 from spiked sample blanks and matched blank tissue matrices (Table S6). […]
were extracted and analyzed in parallel. […]

[2] = PCB52 and monohydroxylated metabolite tissue levels by GC-MS/MS after 4 h nose-only inhalation; type: in vivo, Sprague–Dawley rats; conditions: for concentration at 4 h: Sprague-Dawley, rat, inhaled, mean
Procedure: PCB52 vapor for the animal exposure was generated using a published protocol.[12] Briefly, 450 g of 3 mm diameter glass beads were added to a solution of 1.5 g of PCB52 in dichloromethane. The glass beads were then coated with PCB52 by evaporating dichloromethane in a water bath at 29 °C using a rotary evaporator (Buchi Rotavapor R-200, New Castle, DE) under reduced pressure. For the animal exposures, high-efficiency particulate air (HEPA)-filtered laboratory air was passed through the PCB52-coated glass beads at a flow rate of 12 L/min to expose animals to PCB52 vapor in a nose-only exposure apparatus (Figure 1A). The flask of PCB52-coated beads and mixing chamber were kept at 25.0 °C using a precision water bath to facilitate the volatilization of PCB52. The PCB52-laden air was passed through a mixing chamber and distributed to the nose-only inhalation apparatus at a flow rate of 4 L/min per tower (n = 3) and a sampling cartridge filled with 10 g of Amberlite XAD-2 polymeric absorbent resin (Sigma-Aldrich, St. Louis, MO) at a flow rate of 2 L/min. The specified flow rates were generated using flow meter-regulated pumps. The XAD-2 cartridge was used to capture PCB52 vapor to characterize the exposure atmosphere. A sham exposure group was exposed in parallel to HEPA-filtered clean air in an identical nose-only exposure system in an adjacent lab with no supplied PCB52.
The Institutional Animal Care and Use Committee of the University of Iowa approved all of the animal protocols. Animals were housed in a temperature- and humidity-controlled room (21 °C, 55% relative humidity) with a 12 h light/dark cycle in an Association for the Assessment and Accreditation of Laboratory Animal Care (AAALAC) accredited animal facility. Animals were provided with food (sterile Teklad 5% stock diet, Harlan, Madison, WI) and water ad libitum throughout the study. Thirty-six male and female Sprague–Dawley rats (7 weeks of age; Charles River, Wilmington, MA) were allowed to acclimate to the animal facility for 8 days after arrival. Prior to exposure, rats (227 ± 27 and 197 ± 13 g, male and female, respectively) were randomly assigned to the exposure groups (n = 6 per group) using a random number generated (Excel, version 2307). Animals were simultaneously exposed for 4 h to a low or high concentration of PCB52-laden per sex) or filtered lab air (Figure 1A). Exposure duration was limited to 4 h along with scheduled training days (30 min at 55 days of age and 2 h at 56 days of age) to acclimate animals and minimize stress. […] Animal exposure occurred for 4 h at 57 days of age. Rats are considered adolescents at this age.[38] Serum was collected immediately after the animals were removed from the nose-only apparatus by cardiac puncture under isoflurane anesthesia. Rats were perfused with saline, and organs were excised and stored at −80 °C. Body and organ weights, including brain, lungs, and thymus, were not altered by PCB52 inhalation regardless of sex or exposure (Tables S2 and S3).
PCB52 and its hydroxylated metabolites were extracted from tissues, serum, and cecum and intestinal content using a published protocol;[40],[41] see the Supporting Information. Briefly, PCB52 and its metabolites were extracted from homogenates by liquid–liquid extraction and cleaned by solid-phase extraction with acidified silica gel. PCB52 and metabolites were quantified in the multiple reaction monitoring setting (MRM) on an Agilent 7890 A GC system equipped with an Agilent 7000 Triple Quad and Agilent 7693 autosampler (Agilent Technologies, Santa Clara, CA); see the Supporting Information.
PCB52 and metabolite levels, adjusted for tissue wet weight, are reported as the mean ± standard deviation. Differences in PCB52 and metabolite levels from the GC-MS/MS analysis were analyzed with the Tobit regression model because some measurements are below the detection limit. […]

SMILES: Clc1ccc(Cl)c(-c2cc(Cl)ccc2Cl)c1 [PCB52, 2,2′,5,5′-tetrachlorobiphenyl]
- number of PCB52 metabolites identified by LC-HRMS ([1]; liver): 7 metabolites
- number of PCB52 metabolites identified by LC-HRMS ([1]; lung): 9 metabolites
- number of PCB52 metabolites identified by LC-HRMS ([1]; serum): 9 metabolites
- concentration at 4 h ([2]; female, adipose, female, high dose, read-out: PCB or metabolite detected level, Adipose): 6 ng/g
- concentration at 4 h ([2]; female, adipose, female, low dose, read-out: PCB or metabolite detected level, Adipose): 6 ng/g
- concentration at 4 h ([2]; female, brain, female, high dose, read-out: PCB or metabolite detected level, Brain): 2 ng/g
- concentration at 4 h ([2]; female, brain, female, low dose, read-out: PCB or metabolite detected level, Brain): 2 ng/g
- concentration at 4 h ([2]; female, cecum, female, high dose, read-out: PCB or metabolite detected level, Cecum): 1 ng/g
- concentration at 4 h ([2]; female, cecum, female, low dose, read-out: PCB or metabolite detected level, Cecum): 1 ng/g
- concentration at 4 h ([2]; female, intestinal content, female, high dose, read-out: PCB or metabolite detected level, Intestinal content): 2 ng/g
- concentration at 4 h ([2]; female, intestinal content, female, low dose, read-out: PCB or metabolite detected level, Intestinal content): 5 ng/g
- concentration at 4 h ([2]; female, liver, female, high dose, read-out: PCB or metabolite detected level, Liver): 7 ng/g
- concentration at 4 h ([2]; female, liver, female, low dose, read-out: PCB or metabolite detected level, Liver): 7 ng/g
- concentration at 4 h ([2]; female, lung, female, high dose, read-out: PCB or metabolite detected level, Lung): 45 ng/g
- concentration at 4 h ([2]; female, lung, female, low dose, read-out: PCB or metabolite detected level, Lung): 41 ng/g
- concentration at 4 h ([2]; female, serum, female, high dose, read-out: PCB or metabolite detected level, Serum): 1 ng/g
- concentration at 4 h ([2]; female, serum, female, low dose, read-out: PCB or metabolite detected level, Serum): 1 ng/g
- general trend of decreasing tissue concentration ([2]; irrespective of sex or dose, GC-MS/MS): lung > liver > adipose > brain ≈ intestinal content ≈ cecum ≈ serum
- concentration at 4 h ([2]; male, adipose, male, high dose, read-out: PCB or metabolite detected level, Adipose): 8 ng/g
- concentration at 4 h ([2]; male, adipose, male, low dose, read-out: PCB or metabolite detected level, Adipose): 6 ng/g
- concentration at 4 h ([2]; male, brain, male, high dose, read-out: PCB or metabolite detected level, Brain): 2 ng/g
- concentration at 4 h ([2]; male, brain, male, low dose, read-out: PCB or metabolite detected level, Brain): 1 ng/g
- concentration at 4 h ([2]; male, cecum, male, high dose, read-out: PCB or metabolite detected level, Cecum): 2 ng/g
- concentration at 4 h ([2]; male, cecum, male, low dose, read-out: PCB or metabolite detected level, Cecum): 1 ng/g
- concentration at 4 h ([2]; male, intestinal content, male, high dose, read-out: PCB or metabolite detected level, Intestinal content): 1 ng/g
- concentration at 4 h ([2]; male, intestinal content, male, low dose, read-out: PCB or metabolite detected level, Intestinal content): 1 ng/g
- concentration at 4 h ([2]; male, liver, male, high dose, read-out: PCB or metabolite detected level, Liver): 10 ng/g
- concentration at 4 h ([2]; male, liver, male, low dose, read-out: PCB or metabolite detected level, Liver): 9 ng/g
- concentration at 4 h ([2]; male, lung, male, high dose, read-out: PCB or metabolite detected level, Lung): 46 ng/g
- concentration at 4 h ([2]; male, lung, male, low dose, read-out: PCB or metabolite detected level, Lung): 50 ng/g
- concentration at 4 h ([2]; male, serum, male, high dose, read-out: PCB or metabolite detected level, Serum): 2 ng/g
- concentration at 4 h ([2]; male, serum, male, low dose, read-out: PCB or metabolite detected level, Serum): 2 ng/g
